Measurements: patent US11981658B2, “Substituted aminopyridine compounds as EGFR inhibitors” (YUHAN CORPORATION, priority 2021, dated 2024)
Like-named read-outs stand apart in the source and are kept apart here.

Tests used:
EGFR wildtype (WT) = EGFR wildtype (WT) (Homo sapiens, UniProt P00533); experiment: Biochemical EGFR kinase inhibition assay (Lance Ultra TR-FRET), wildtype
Outline: (§1)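 In this biochemical assay, phosphorylation after a one-hour room-temperature reaction was detected with europium-labelled anti-phosphopeptide antibody at 2 nM final concentration.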

EGFR L858R/T790M/C797S = EGFR L858R/T790M/C797S (Homo sapiens, UniProt P00533, C797S/L858R/T790M); experiment: Biochemical EGFR kinase inhibition assay (Lance Ultra TR-FRET), triple mutant L858R/T790M/C797S
Sequence of EGFR L858R/T790M/C797S (P00533 25-1210 T790M/C797S/L858R): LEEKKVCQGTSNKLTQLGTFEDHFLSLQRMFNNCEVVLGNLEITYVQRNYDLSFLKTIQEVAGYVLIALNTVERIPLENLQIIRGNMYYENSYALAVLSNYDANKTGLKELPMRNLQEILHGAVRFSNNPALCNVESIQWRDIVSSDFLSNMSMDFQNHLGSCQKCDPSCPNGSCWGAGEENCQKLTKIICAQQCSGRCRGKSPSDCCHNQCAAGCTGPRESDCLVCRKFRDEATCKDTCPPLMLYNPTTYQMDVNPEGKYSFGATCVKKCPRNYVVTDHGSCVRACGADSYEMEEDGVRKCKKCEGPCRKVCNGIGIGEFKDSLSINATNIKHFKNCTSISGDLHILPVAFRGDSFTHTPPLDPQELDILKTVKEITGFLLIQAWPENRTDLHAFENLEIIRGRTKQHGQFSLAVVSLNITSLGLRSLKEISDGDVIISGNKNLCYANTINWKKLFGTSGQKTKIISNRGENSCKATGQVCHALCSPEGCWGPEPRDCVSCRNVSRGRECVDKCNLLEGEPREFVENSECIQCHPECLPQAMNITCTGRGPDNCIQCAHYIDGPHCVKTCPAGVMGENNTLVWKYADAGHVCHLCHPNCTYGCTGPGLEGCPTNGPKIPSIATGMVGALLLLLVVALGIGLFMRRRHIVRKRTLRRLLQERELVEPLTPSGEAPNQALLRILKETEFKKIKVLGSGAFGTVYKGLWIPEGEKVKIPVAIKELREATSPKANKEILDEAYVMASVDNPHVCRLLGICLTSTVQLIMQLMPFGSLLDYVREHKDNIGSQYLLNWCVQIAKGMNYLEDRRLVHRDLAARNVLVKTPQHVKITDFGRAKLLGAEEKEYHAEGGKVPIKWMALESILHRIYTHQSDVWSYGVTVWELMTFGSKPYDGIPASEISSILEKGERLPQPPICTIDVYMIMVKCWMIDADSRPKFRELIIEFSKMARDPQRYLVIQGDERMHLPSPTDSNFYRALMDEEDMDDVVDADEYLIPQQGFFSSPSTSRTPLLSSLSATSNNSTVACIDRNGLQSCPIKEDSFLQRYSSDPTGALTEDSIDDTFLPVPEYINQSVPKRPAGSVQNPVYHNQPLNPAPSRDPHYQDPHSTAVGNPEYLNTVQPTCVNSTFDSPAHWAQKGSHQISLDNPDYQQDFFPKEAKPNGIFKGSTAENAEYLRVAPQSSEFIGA
Outline: as §1

EGFR Del19/T790M/C797S = EGFR Del19/T790M/C797S (Homo sapiens, UniProt P00533, C797S/DEL746-750/T790M); experiment: Biochemical EGFR kinase inhibition assay (Lance Ultra TR-FRET), triple mutant del19/T790M/C797S
Outline: as §1

EGFR Del19/C797S = EGFR Del19/C797S (Homo sapiens, UniProt P00533, C797S/DEL746-750); experiment: Biochemical EGFR kinase inhibition assay (Lance Ultra TR-FRET), double mutant del19/C797S
Sequence of EGFR Del19/C797S (P00533 with tags, fused parts or gaps DEL746-750/C797S): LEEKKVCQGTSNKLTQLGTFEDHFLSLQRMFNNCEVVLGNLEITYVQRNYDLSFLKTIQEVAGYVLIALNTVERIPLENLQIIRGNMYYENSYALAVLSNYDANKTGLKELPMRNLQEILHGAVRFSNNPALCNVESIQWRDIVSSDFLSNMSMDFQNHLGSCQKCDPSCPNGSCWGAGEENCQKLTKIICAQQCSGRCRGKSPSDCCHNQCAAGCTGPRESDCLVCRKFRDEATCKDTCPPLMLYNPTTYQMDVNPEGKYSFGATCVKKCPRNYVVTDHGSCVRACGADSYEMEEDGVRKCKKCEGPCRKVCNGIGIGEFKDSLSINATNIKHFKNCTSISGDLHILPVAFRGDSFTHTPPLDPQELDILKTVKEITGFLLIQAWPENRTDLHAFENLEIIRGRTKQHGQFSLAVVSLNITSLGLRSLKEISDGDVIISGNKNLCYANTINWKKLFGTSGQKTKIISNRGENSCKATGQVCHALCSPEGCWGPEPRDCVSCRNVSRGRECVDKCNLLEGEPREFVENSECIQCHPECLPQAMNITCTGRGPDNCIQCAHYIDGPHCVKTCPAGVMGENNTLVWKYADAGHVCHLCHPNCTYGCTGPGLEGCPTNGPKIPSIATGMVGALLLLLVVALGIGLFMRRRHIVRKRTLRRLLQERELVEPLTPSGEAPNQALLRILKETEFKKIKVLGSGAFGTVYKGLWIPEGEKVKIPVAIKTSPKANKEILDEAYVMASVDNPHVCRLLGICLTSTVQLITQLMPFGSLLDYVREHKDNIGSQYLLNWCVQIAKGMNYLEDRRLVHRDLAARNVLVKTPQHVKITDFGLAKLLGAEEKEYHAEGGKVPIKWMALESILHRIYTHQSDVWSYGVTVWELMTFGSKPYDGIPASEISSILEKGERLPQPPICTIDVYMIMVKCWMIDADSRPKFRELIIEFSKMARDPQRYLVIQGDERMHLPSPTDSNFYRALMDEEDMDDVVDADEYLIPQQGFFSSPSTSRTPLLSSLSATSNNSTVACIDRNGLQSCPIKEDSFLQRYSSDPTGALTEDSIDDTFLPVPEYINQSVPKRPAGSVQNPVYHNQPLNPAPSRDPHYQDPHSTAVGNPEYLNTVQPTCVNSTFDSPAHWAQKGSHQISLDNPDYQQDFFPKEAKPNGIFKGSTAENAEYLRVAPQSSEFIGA
Outline: as §1

EGFR L858R/C797S = EGFR L858R/C797S (Homo sapiens, UniProt P00533, C797S/L858R); experiment: Biochemical EGFR kinase inhibition assay (Lance Ultra TR-FRET), double mutant L858R/C797S
Sequence of EGFR L858R/C797S (P00533 25-1210 C797S/L858R): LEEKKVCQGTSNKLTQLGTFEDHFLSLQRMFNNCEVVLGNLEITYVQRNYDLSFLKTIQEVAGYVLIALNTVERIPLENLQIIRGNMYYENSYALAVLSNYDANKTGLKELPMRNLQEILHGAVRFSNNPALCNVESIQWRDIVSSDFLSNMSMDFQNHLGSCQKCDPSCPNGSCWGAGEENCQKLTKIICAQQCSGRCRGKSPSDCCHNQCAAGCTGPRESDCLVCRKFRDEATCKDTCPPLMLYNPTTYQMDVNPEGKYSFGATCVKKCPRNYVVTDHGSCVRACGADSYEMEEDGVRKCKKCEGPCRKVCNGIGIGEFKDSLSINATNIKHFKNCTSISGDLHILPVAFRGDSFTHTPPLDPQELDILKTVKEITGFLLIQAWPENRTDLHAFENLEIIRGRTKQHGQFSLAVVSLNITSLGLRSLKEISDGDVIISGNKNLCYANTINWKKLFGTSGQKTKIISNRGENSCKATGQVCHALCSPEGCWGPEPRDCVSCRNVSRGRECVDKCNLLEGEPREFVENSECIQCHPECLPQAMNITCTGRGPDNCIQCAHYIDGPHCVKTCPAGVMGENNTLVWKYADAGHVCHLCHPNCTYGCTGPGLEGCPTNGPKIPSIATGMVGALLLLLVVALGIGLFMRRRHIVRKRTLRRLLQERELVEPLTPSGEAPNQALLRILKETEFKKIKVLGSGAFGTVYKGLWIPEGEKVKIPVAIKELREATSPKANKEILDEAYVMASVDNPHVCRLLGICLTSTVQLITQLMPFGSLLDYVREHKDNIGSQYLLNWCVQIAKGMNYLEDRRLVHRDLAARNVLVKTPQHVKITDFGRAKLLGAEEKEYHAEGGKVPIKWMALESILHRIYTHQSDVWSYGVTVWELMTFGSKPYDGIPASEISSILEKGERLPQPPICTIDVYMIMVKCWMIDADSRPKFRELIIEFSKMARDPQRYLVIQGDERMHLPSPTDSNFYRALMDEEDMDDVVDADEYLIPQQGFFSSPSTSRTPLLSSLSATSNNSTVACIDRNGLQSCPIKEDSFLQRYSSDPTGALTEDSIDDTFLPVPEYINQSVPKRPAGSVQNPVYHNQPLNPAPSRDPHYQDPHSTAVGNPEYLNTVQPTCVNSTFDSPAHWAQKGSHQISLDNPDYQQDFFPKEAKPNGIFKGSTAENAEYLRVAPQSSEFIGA
Outline: as §1

[1] = ATP at Km, read-out: IC50 WT (nM), Km ATP
[2] = ATP at Km, read-out: IC50 L858R/T790M/C797S (nM), Km ATP
[3] = IC50 L858R/T790M/C797S (nM), 100 μM ATP
[4] = ATP at Km, read-out: IC50 Del19/T790M/C797S (nM), Km ATP
[5] = IC50 Del19/T790M/C797S (nM), 100 μM ATP
[6] = ATP at Km, read-out: IC50 Del19/C797S (nM), Km ATP
[7] = IC50 Del19/C797S (nM), 100 μM ATP
[8] = ATP at Km, read-out: IC50 L858R/C797S (nM), Km ATP
[9] = IC50 L858R/C797S (nM), 100 μM ATP

Sequence of EGFR wildtype (WT) (P00533 25-1210): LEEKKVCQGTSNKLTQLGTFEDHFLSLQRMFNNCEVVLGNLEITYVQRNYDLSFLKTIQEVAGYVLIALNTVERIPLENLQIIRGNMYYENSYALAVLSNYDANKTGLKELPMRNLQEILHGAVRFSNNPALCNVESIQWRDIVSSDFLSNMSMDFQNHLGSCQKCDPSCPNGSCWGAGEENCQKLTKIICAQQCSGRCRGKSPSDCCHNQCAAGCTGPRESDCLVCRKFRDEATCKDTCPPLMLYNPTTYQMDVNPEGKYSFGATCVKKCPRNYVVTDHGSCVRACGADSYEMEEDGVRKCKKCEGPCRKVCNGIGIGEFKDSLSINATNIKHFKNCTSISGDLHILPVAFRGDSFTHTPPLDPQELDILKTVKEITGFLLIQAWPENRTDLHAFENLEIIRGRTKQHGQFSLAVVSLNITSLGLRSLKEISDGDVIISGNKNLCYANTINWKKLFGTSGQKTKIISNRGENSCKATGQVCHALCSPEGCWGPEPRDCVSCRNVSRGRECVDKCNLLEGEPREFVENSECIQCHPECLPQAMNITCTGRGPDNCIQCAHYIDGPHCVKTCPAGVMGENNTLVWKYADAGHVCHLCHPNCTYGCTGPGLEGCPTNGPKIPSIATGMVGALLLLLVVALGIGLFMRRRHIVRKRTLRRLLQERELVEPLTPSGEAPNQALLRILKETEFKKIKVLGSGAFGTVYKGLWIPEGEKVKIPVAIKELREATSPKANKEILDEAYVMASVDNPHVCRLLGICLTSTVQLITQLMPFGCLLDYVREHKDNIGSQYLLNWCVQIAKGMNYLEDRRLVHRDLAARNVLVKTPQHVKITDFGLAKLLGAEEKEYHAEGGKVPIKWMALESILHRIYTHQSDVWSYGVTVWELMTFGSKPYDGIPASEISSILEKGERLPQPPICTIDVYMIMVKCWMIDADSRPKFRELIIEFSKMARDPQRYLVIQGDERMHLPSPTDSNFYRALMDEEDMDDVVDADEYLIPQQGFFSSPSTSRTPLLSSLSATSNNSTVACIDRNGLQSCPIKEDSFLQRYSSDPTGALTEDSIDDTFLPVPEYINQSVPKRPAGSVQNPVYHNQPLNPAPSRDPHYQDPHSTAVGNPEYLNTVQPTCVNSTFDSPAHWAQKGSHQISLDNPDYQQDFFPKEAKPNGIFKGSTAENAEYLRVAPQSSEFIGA

IC50 (EGFR wildtype (WT); [1]) [nM] | IC50 (EGFR wildtype (WT); IC50 WT (nM), 100 μM ATP) [nM] | IC50 (EGFR L858R/T790M/C797S; [2]) [nM] | IC50 (EGFR L858R/T790M/C797S; [3]) [nM] | IC50 (EGFR Del19/T790M/C797S; [4]) [nM] | IC50 (EGFR Del19/T790M/C797S; [5]) [nM] | IC50 (EGFR Del19/C797S; [6]) [nM] | IC50 (EGFR Del19/C797S; [7]) [nM] | IC50 (EGFR L858R/C797S; [8]) [nM] | IC50 (EGFR L858R/C797S; [9]) [nM] | SMILES
4.4 | > 10000 | 0.4 | 1.3 | 1.2 | 1.4 | 0.8 | 1.1 | 0.9 | 5.7 | CN(C)C(=O)c1ccc(C#Cc2cnc(Nc3ccnc(-c4cnn(S(=O)(=O)C5CC5)c4)n3)cc2N2CCC(C)(CO)CC2)cc1 [Example 262, 4-((6-((2-(1-(Cyclopropylsulfonyl)-1H-pyrazol-4-yl)pyrimidin-4-yl)amino)-4-(4-(hydroxymethyl)-4-methylpiperidin-1-yl)pyridin-3-yl)ethynyl)-N,N-dimethylbenzamide]
3 | > 10000 | 0.4 | 1.2 | 1.1 | 1.5 | 0.8 | 1.3 | 0.7 | 3.2 | CC1(CO)CCN(c2cc(Nc3ccnc(-c4cnn(S(=O)(=O)C5CC5)c4)n3)ncc2C#Cc2ccc(C(=O)N3CCOCC3)cc2)CC1 [Example 263, (4-((6-((2-(1-(Cyclopropylsulfonyl)-1H-pyrazol-4-yl)pyrimidin-4-yl)amino)-4-(4-(hydroxymethyl)-4-methylpiperidin-1-yl)pyridin-3-yl)ethynyl)phenyl)(morpholino)methanone]
9.9 | > 10000 | 0.3 | 0.8 | 0.7 | 0.9 | 1 | 1.8 | 1.3 | 14.1 | CN(C)C(=O)c1cccc(C#Cc2cnc(Nc3ccnc(-c4cnn(S(=O)(=O)C5CC5)c4)n3)cc2N2CCC(C)(CO)CC2)n1 [Example 264, 6-((6-((2-(1-(Cyclopropylsulfonyl)-1H-pyrazol-4-yl)pyrimidin-4-yl)amino)-4-(4-(hydroxymethyl)-4-methylpiperidin-1-yl)pyridin-3-yl)ethynyl)-N,N-dimethylpicolinamide]
7.6 | 6520 | 0.3 | 0.8 | 0.8 | 0.9 | 0.8 | 1.1 | 0.9 | 9.1 | CC1(CO)CCN(c2cc(Nc3ccnc(-c4cnn(S(=O)(=O)C5CC5)c4)n3)ncc2C#Cc2cccc(C(=O)N3CCOCC3)n2)CC1 [Example 265, (6-((6-((2-(1-(Cyclopropylsulfonyl)-1H-pyrazol-4-yl)pyrimidin-4-yl)amino)-4-(4-(hydroxymethyl)-4-methylpiperidin-1-yl)pyridin-3-yl)ethynyl)pyridin-2-yl)(morpholino)methanone]
7.2 | 1230 | 0.4 | 0.4 | 1 | 0.8 | 1.1 | 2.1 | 0.9 | 5.4 | CC1(CO)CCN(c2cc(Nc3ccnc(-c4cnn(S(=O)(=O)C5CC5)c4)n3)ncc2C#CC2CC(C(C)(C)O)C2)CC1 (stereo not shown) [Example 266, 2-(3-((6-((2-(1-(Cyclopropylsulfonyl)-1H-pyrazol-4-yl)pyrimidin-4-yl)amino)-4-(4-(hydroxymethyl)-4-methylpiperidin-1-yl)pyridin-3-yl)ethynyl)cyclobutyl)propan-2-ol]
252 | > 10000 | 0.8 | 3.1 | 1.6 | 1.9 | 24.2 | 12.4 | 4.1 | 130 | CC1(CO)CCN(c2cc(Nc3ccnc(-c4cnn(CC(F)F)c4)n3)ncc2C#Cc2cnn(C(F)(F)F)c2)CC1 [Example 267, (1-(2-((2-(1-(2,2-Difluoroethyl)-1H-pyrazol-4-yl)pyrimidin-4-yl)amino)-5-((1-(trifluoromethyl)-1H-pyrazol-4-yl)ethynyl)pyridin-4-yl)-4-methylpiperidin-4-yl)methanol]
105 | > 10000 | 1 | 2.9 | 2.4 | 6.2 | 26.6 | 59.6 | 41.8 | 116 | CC1(CO)CCN(c2cc(Nc3ccnc(-c4cnn(S(C)(=O)=O)c4)n3)ncc2C#Cc2cnn(C(F)(F)F)c2)CC1 [Example 268, (4-Methyl-1-(2-((2-(1-(methylsulfonyl)-1H-pyrazol-4-yl)pyrimidin-4-yl)amino)-5-((1-(trifluoromethyl)-1H-pyrazol-4-yl)ethynyl)pyridin-4-yl)piperidin-4-yl)methanol]
> 10000 | > 10000 |  | 160 |  | 129 |  | 1950 |  | 1350 | CC1(CO)CCN(c2cc(Nc3ccnc(-c4ccc(F)nc4)n3)ncc2C#Cc2cnn(C(F)(F)F)c2)CC1 [Example 269, (1-(2-((2-(6-Fluoropyridin-3-yl)pyrimidin-4-yl)amino)-5-((1-(trifluoromethyl)-1H-pyrazol-4-yl)ethynyl)pyridin-4-yl)-4-methylpiperidin-4-yl)methanol]
111 | > 10000 | 1.6 | 4.8 | 0.7 | 1.2 | 27.9 | 28 | 72.8 | 2800 | Cn1cc(C#Cc2cnc(Nc3ccnc(Nc4ccccc4S(C)(=O)=O)n3)cc2N2CCC(C)(CO)CC2)cn1 [Example 270, (4-Methyl-1-(5-((1-methyl-1H-pyrazol-4-yl)ethynyl)-2-((2-((2-(methylsulfonyl)phenyl)amino)pyrimidin-4-yl)amino)pyridin-4-yl)piperidin-4-yl)methanol]
411 | > 10000 | 6.7 | 9.2 | 1.8 | 3 | 68.5 | 111 | 439 | > 10000 | CC1(CO)CCN(c2cc(Nc3ccnc(Nc4ccccc4S(C)(=O)=O)n3)ncc2C#Cc2cnn(C(F)F)c2)CC1 [Example 271, (1-(5-((1-(Difluoromethyl)-1H-pyrazol-4-yl)ethynyl)-2-((2-((2-(methylsulfonyl)phenyl)amino)pyrimidin-4-yl)amino)pyridin-4-yl)-4-methylpiperidin-4-yl)methanol]
108 | > 10000 | 2.2 | 3.1 | 4 | 7.1 | 51.2 | 81.9 | 18.9 | 2120 | Cc1nn(S(=O)(=O)N(C)C)cc1-c1nccc(Nc2cc(N3CCC(C)(CO)CC3)c(C#Cc3cnn(C(F)(F)F)c3)cn2)n1 [Example 272, 4-(4-((4-(4-(Hydroxymethyl)-4-methylpiperidin-1-yl)-5-((1-(trifluoromethyl)-1H-pyrazol-4-yl)ethynyl)pyridin-2-yl)amino)pyrimidin-2-yl)-N, N,3-trimethyl-1H-pyrazole-1-sulfonamide]
46.1 | > 10000 | 0.3 | 1.5 | 5.6 | 2.9 | 35.8 | 97.4 | 16.6 | 198 | CN(C)S(=O)(=O)n1cc(-c2nccc(Nc3cc(N4CCC(C)(CO)CC4)c(C#Cc4cnn(C(F)(F)F)c4)cn3)n2)cn1 [Example 273, 4-(4-((4-(4-(Hydroxymethyl)-4-methylpiperidin-1-yl)-5-((1-(trifluoromethyl)-1H-pyrazol-4-yl)ethynyl)pyridin-2-yl)amino)pyrimidin-2-yl)-N, N-dimethyl-1H-pyrazole-1-sulfonamide]
4.4 | 1890 | 0.1 | 0.2 | 0.1 | 0.2 | 0.4 | 0.6 | 1 | 10.8 | CC1(CO)CCN(c2cc(Nc3ccnc(-c4cnn(S(=O)(=O)C5CC5)c4)n3)ncc2C#CCCO)CC1 [Example 274, 4-(6-((2-(1-(Cyclopropylsulfonyl)-1H-pyrazol-4-yl)pyrimidin-4-yl)amino)-4-(4-(hydroxymethyl)-4-methylpiperidin-1-yl)pyridin-3-yl)but-3-yn-1-ol]
62.3 | > 10000 | 0.8 | 3.6 | 1 | 1.7 | 4.5 | 10.4 | 12.3 | 118 | CC1(CO)CCN(c2cc(Nc3ccnc(-c4cnn(S(=O)(=O)C5CC5)c4)n3)ncc2C#CCC(F)(F)F)CC1 [Example 275, (1-(2-((2-(1-(Cyclopropylsulfonyl)-1H-pyrazol-4-yl)pyrimidin-4-yl)amino)-5-(4,4,4-trifluorobut-1-yn-1-yl)pyridin-4-yl)-4-methylpiperidin-4-yl)methanol]
